Tests used:
dCK pS74 = assay: Phosphoproteomic nLC-MS/MS analysis of dCK phosphorylation; format: cell-based, human; parameters: key to dCK pS74: ↓: partial decrease/inhibition; ↓↓↓: nearly complete inhibition; ↑: increase; ⟷: no change
Protocol: against both the Uniprot human FASTA database and a decoy database of the Uniprot human database which read from C-terminus to N-terminus; Percolator was used to filter the data at 1% FDR at both the peptide and […]
Phosphoproteomic analyses. CCRF-CEM cells were prepared same as the asynchronous CEM cells total protein digests above, except that a total of 7.5 mg total protein from 1 x 10^8 cells was collected per treatment condition for phosphoproteomic analysis. tC18 Sep-Pak cartridges (Waters) were used for peptide desalting and Pierce Quantitative Colorimetric Peptide Assay was performed prior to phosphopeptide enrichment.
Hydrophilic interaction chromatography (HILIC) and immobilized metal affinity chromatography (IMAC) were performed same as previously described4. Data dependent nLC-MS/MS was performed on Thermo QExactive Plus same as above. […] Identified phosphopeptides were manually quantified by area-based extracted ion chromatograms of the monoisotopic peak. […]

CEM T-ALL cells = assay: ssDNA (F7-26) and pH2A.X flow cytometry; format: cell-based, human
Protocol: Treated CEM T-ALL cells were fixed with ice-cold methanol:PBS (6:1 v/v). Staining with F7-26 ssDNA monoclonal antibody (mouse) was performed according to manufacturer’s instructions (EMD Millipore, #MAB3299) followed by secondary antibody IgM-PE. Subsequently, cells were stained with the phospho-Histone H2A.X (pS139 H2A.X) specific antibody conjugated to FITC (EMD Millipore, #05-636) and DAPI, and then analyzed by flow cytometry (a detailed description is available in the Supplementary Information).
(525→383). The peak areas for each drug (precursor→fragment ion transitions) at predetermined retention times were recorded using the software supplied by the instrument manufacturer (Agilent MassHunter).
Cell cycle histograms. Cells were plated at a density of 0.5 x 10^6 cells/mL in respective media or drug treated media. […]
Cell cycle kinetics and cell cycle progression by intracellular detection of DNA-incorporated 5-ethynyl-2-deoxyuridine (EdU). […] The total DNA content was assessed by staining the samples with FxCycle-Violet (Invitrogen, #F10347) at 1 µg/mL final concentration in PBS containing 2% FBS. […] Total DNA content was assessed by staining with FxCycle-Violet (Invitrogen) at 1 µg/mL final concentration in PBS containing 2% FBS. pH2A.X staining. […]
Measurement of ssDNA levels using the F7-26 monoclonal antibody. […] Cells were washed with PBS and stained with 100 µL of fluorescence-conjugated […]

| Compound | decrease in dCK pS74 (fold) (dCK pS74; VE-822-treated leukemia cells) | dCK pS74 (dCK pS74; summary Fig. 2g, CEM cells) | increase of the percentage of ssDNA+ cells (CEM T-ALL cells; 0.5 h after treatment) | increase of the percentage of ssDNA+ cells (CEM T-ALL cells; 4 h time point) |
| --- | --- | --- | --- | --- |
| CNCc1ccc(-c2cc(-c3nc(-c4ccc(S(=O)(=O)C(C)C)cc4)cnc3N)on2)cc1 [VE-822] | two-fold | ↓ |  |  |
| NC(=S)N/N=C/c1ncccc1N [3-AP] |  |  | more than two-fold | greater than three-fold |

From paper PMC5556071, “ATR inhibition facilitates targeting of leukemia dependence on convergent nucleotide biosynthetic pathways” (Nature Communications, 2017)
